In brackets after ≈: the same amount, converted by molar mass.
How the values were obtained:
Test in all cases: Bacterial growth minimal inhibitory concentration (microdilution, cation-adjusted Mueller-Hinton Broth)
[1] = test system: E. coli ATCC25922; assay type: cell-based; details: Escherichia coli, ATCC25922; quinolone-sensitive strain
Experimental: (§1) Minimal Inhibitory Concentrations (MICs; mg/L) were determined in cation-adjusted Mueller-Hinton Broth by a microdilution method following the description given in “Methods for Dilution Antimicrobial Susceptibility Tests for Bacteria that Grow Aerobically”, Approved standard, 7th ed., Clinical and Laboratory Standards Institute (CLSI) Document M7-A7, Wayne, Pa., USA (2006).
(§2) All Example compounds were tested against several Gram positive and Gram negative bacteria. […] Staphylococcus aureus A798 is a multiply-resistant strain (methicillin- and quinolone-resistant), Klebsiella pneumoniae T6474 is a multiply-resistant strain (penicillin-, cephalosporin- and in particular quinolone-resistant), while E. coli ATCC25922 and Pseudomonas aeruginosa ATCC 27853 are quinolone-sensitive strains.

[2] = test system: P. aeruginosa ATCC 27853; assay type: cell-based, Pseudomonas aeruginosa; details: Pseudomonas aeruginosa, ATCC27853; quinolone-sensitive strain
Experimental: as §1, §2

[3] = test system: S. aureus A798; assay type: cell-based, Staphylococcus aureus; details: Staphylococcus aureus, A798; multiply-resistant strain (methicillin- and quinolone-resistant)
Experimental: as §1, §2

[4] = test system: K. pneumoniae T6474; assay type: cell-based, Klebsiella pneumoniae; details: Klebsiella pneumoniae, T6474; multiply-resistant strain (penicillin-, cephalosporin- and quinolone-resistant)
Experimental: as §1, §2

Row | SMILES | MIC [1] | MIC [2] | MIC [3] | MIC [4]
1 | CN1CC(Oc2cccc(-c3cccc(CNCC[C@H]4CN(c5ccc6c(n5)NC(=O)CO6)C(=O)O4)c3)n2)C1 [Example $122, 6-[(S)-5-(2-{3-[6-(1-methyl-azetidin-3-yloxy)-pyridin-2-yl]-benzylamino}-ethyl)-2-oxo-oxazolidin-3-yl]-4H-pyrido[3,2-b][1,4]oxazin-3-one] | 0.25 µg/mL (≈ 0.471 µM) | 0.5 µg/mL (≈ 0.942 µM) | 0.25 µg/mL (≈ 0.471 µM) | 0.5 µg/mL (≈ 0.942 µM)
2 | CN1CCC[C@H](Oc2cccc(-c3cccc(CNCCC4CN(c5ccc6c(n5)NC(=O)CO6)C(=O)O4)c3)n2)C1 (mixture of isomers) [Example $142, 6-[(RS)-5-(2-{3-[6-((S)-1-methyl-piperidin-3-yloxy)-pyridin-2-yl]-benzylamino}-ethyl)-2-oxo-oxazolidin-3-yl]-4H-pyrido[3,2-b][1,4]oxazin-3-one] | 2 µg/mL | 2 µg/mL | 0.5 µg/mL | 2 µg/mL
3 | CN1CC[C@H](Oc2cccc(-c3cccc(CNCC[C@H]4CN(c5ccc6c(c5)NC(=O)CS6)C(=O)O4)c3)n2)C1 [Example $167, 6-[(S)-5-(2-{3-[6-((S)-1-methyl-pyrrolidin-3-yloxy)-pyridin-2-yl]-benzylamino}-ethyl)-2-oxo-oxazolidin-3-yl]-4H-benzo[1,4]thiazin-3-one] | 1 µg/mL (≈ 1.79 µM) | 1 µg/mL (≈ 1.79 µM) | 0.25 µg/mL (≈ 0.447 µM) | 1 µg/mL (≈ 1.79 µM)
4 | NCCOc1cccc(-c2cccc(CNCC[C@@H]3CN(c4ccc5c(c4)NC(=O)CS5)C(=O)O3)c2)n1 [Example 22, 6-[(R)-5-(2-{3-[6-(2-amino-ethoxy)-pyridin-2-yl]-benzylamino}-ethyl)-2-oxo-oxazolidin-3-yl]-4H-benzo[1,4]thiazin-3-one] | 0.5 µg/mL (≈ 0.962 µM) | 0.5 µg/mL (≈ 0.962 µM) | 0.5 µg/mL (≈ 0.962 µM) | 2 µg/mL (≈ 3.85 µM)
5 | CN1CC(Oc2cncc(-c3cccc(CNCC[C@H]4CN(c5ccc6c(n5)NC(=O)CO6)C(=O)O4)n3)n2)C1 [Example $179, 6-{(S)-5-[2-({6-[6-(1-methyl-azetidin-3-yloxy)-pyrazin-2-yl]-pyridin-2-ylmethyl}-amino)-ethyl]-2-oxo-oxazolidin-3-yl}-4H-pyrido[3,2-b][1,4]oxazin-3-one] | 1 µg/mL (≈ 1.88 µM) | 2 µg/mL (≈ 3.76 µM) | 0.5 µg/mL (≈ 0.939 µM) | 1 µg/mL (≈ 1.88 µM)
6 | O=C1COc2ccc(N3C[C@H](CCNCc4cccc(-c5cccc(OC[C@H]6CCNC6)n5)c4)OC3=O)nc2N1 [Example $144, 6-[(S)-2-oxo-5-(2-{3-[6-((S)-1-pyrrolidin-3-ylmethoxy)-pyridin-2-yl]-benzylamino}-ethyl)-oxazolidin-3-yl]-4H-pyrido[3,2-b][1,4]oxazin-3-one] | 4 µg/mL (≈ 7.34 µM) | 1 µg/mL (≈ 1.84 µM) | 2 µg/mL (≈ 3.67 µM) | 4 µg/mL (≈ 7.34 µM)
7 | O=C1COc2ccc(N3C[C@H](CCNCc4cccc(-c5cccc(OCCN6CCCCC6)n5)c4)OC3=O)nc2N1 [Example 12, 6-[(S)-2-oxo-5-(2-{3-[6-(2-piperidin-1-yl-ethoxy)-pyridin-2-yl]-benzylamino}-ethyl)-oxazolidin-3-yl]-4H-pyrido[3,2-b][1,4]oxazin-3-one] | 1 µg/mL (≈ 1.75 µM) | 2 µg/mL (≈ 3.49 µM) | 0.063 µg/mL (≈ 0.11 µM) | 2 µg/mL (≈ 3.49 µM)
8 | C[C@@H]1CN(C)C[C@H]1Oc1cccc(-c2cccc(CNCC[C@H]3CN(c4ccc5c(n4)NC(=O)CO5)C(=O)O3)c2)n1 (relative stereo) [Example $177, 6-[(S)-5-(2-{3-[6-((3S*,4R*)-1,4-dimethyl-pyrrolidin-3-yloxy)-pyridin-2-yl]-benzylamino}-ethyl)-2-oxo-oxazolidin-3-yl]-4H-pyrido[3,2-b][1,4]oxazin-3-one] | 2 µg/mL (≈ 3.58 µM) | 4 µg/mL (≈ 7.16 µM) | 0.5 µg/mL (≈ 0.895 µM) | 4 µg/mL (≈ 7.16 µM)
9 | CN1CC[C@H](Oc2cncc(-c3cccc(CNCC[C@H]4CN(c5ccc6c(n5)NC(=O)CO6)C(=O)O4)n3)n2)C1 [Example $145, 6-{(S)-5-[2-({6-[6-((S)-1-methyl-pyrrolidin-3-yloxy)-pyrazin-2-yl]-pyridin-2-ylmethyl}-amino)-ethyl]-2-oxo-oxazolidin-3-yl}-4H-pyrido[3,2-b][1,4]oxazin-3-one] | 4 µg/mL (≈ 7.32 µM) | 8 µg/mL (≈ 14.6 µM) | 2 µg/mL (≈ 3.66 µM) | 2 µg/mL (≈ 3.66 µM)
10 | CN1CC[C@@H](Oc2cccc(-c3cccc(CNCC[C@H]4CN(c5ccc6c(c5)NC(=O)CS6)C(=O)O4)c3)n2)C1 [Example $168, 6-[(S)-5-(2-{3-[6-((R)-1-methyl-pyrrolidin-3-yloxy)-pyridin-2-yl]-benzylamino}-ethyl)-2-oxo-oxazolidin-3-yl]-4H-benzo[1,4]thiazin-3-one] | 2 µg/mL (≈ 3.57 µM) | 2 µg/mL (≈ 3.57 µM) | 1 µg/mL (≈ 1.79 µM) | 2 µg/mL (≈ 3.57 µM)
11 | C[C@@H]1NCC[C@@H]1Oc1cccc(-c2cccc(CNCC[C@H]3CN(c4ccc5c(n4)NC(=O)CO5)C(=O)O3)c2)n1 (relative stereo) [Example $172, 6-[(S)-5-(2-{3-[6-((2S*,3S*)-2-methyl-pyrrolidin-3-yloxy)-pyridin-2-yl]-benzylamino}-ethyl)-2-oxo-oxazolidin-3-yl]-4H-pyrido[3,2-b][1,4]oxazin-3-one] | 1 µg/mL (≈ 1.84 µM) | 0.5 µg/mL (≈ 0.918 µM) | 0.5 µg/mL (≈ 0.918 µM) | 2 µg/mL (≈ 3.67 µM)
12 | CN1CC(Oc2cccc(-c3cc(CNCC[C@H]4CN(c5ccc6c(n5)NC(=O)CO6)C(=O)O4)ccn3)n2)C1 [Example $185, 6-[(S)-5-(2-{[6′-(1-methyl-azetidin-3-yloxy)-[2,2′]bipyridinyl-4-ylmethyl]-amino}-ethyl)-2-oxo-oxazolidin-3-yl]-4H-pyrido[3,2-b][1,4]oxazin-3-one] | 0.5 µg/mL (≈ 0.941 µM) | 1 µg/mL (≈ 1.88 µM) | 0.125 µg/mL (≈ 0.235 µM) | 0.5 µg/mL (≈ 0.941 µM)

The remaining lines, values ahead:

Row | MIC [1] | MIC [2] | MIC [3] | MIC [4] | SMILES
13 | 16 µg/mL (≈ 31.6 µM) | 4 µg/mL (≈ 7.91 µM) | 8 µg/mL (≈ 15.8 µM) | 8 µg/mL (≈ 15.8 µM) | NCCOc1cncc(-c2ccnc(CNCC[C@H]3CN(c4ccc5c(n4)NC(=O)CO5)C(=O)O3)c2)c1 [Example $159, 6-[(S)-5-(2-{[5-(2-amino-ethoxy)-[3,4′]bipyridinyl-2′-ylmethyl]-amino}-ethyl)-2-oxo-oxazolidin-3-yl]-4H-pyrido[3,2-b][1,4]oxazin-3-one]
14 | 2 µg/mL (≈ 3.78 µM) | 8 µg/mL (≈ 15.1 µM) | 1 µg/mL (≈ 1.89 µM) | 2 µg/mL (≈ 3.78 µM) | NC1(COc2cccc(-c3cccc(CNCC[C@H]4CN(c5ccc6c(n5)NC(=O)CO6)C(=O)O4)c3)c2)CC1 [Example 14, 6-[(S)-5-(2-{[3′-(1-amino-cyclopropylmethoxy)-biphenyl-3-ylmethyl]-amino}-ethyl)-2-oxo-oxazolidin-3-yl]-4H-pyrido[3,2-b][1,4]oxazin-3-one]
15 | 1 µg/mL (≈ 1.99 µM) | 2 µg/mL (≈ 3.97 µM) | 2 µg/mL (≈ 3.97 µM) | 1 µg/mL (≈ 1.99 µM) | NCCOc1cccc(-c2cccc(CNCC[C@H]3CN(c4ccc5c(n4)NC(=O)CO5)C(=O)O3)c2)c1 [Example 1, 6-[(S)-5-(2-{[3′-(2-amino-ethoxy)-biphenyl-3-ylmethyl]-amino}-ethyl)-2-oxo-oxazolidin-3-yl]-4H-pyrido[3,2-b][1,4]oxazin-3-one]
16 | 2 µg/mL (≈ 3.96 µM) | 1 µg/mL (≈ 1.98 µM) | 4 µg/mL (≈ 7.91 µM) | 8 µg/mL (≈ 15.8 µM) | NCCOc1nccc(-c2cccc(CNCC[C@H]3CN(c4ccc5c(n4)NC(=O)CO5)C(=O)O3)c2)n1 [Example $160, 6-[(S)-5-(2-{3-[2-(2-amino-ethoxy)-pyrimidin-4-yl]-benzylamino}-ethyl)-2-oxo-oxazolidin-3-yl]-4H-pyrido[3,2-b][1,4]oxazin-3-one]
17 | 2 µg/mL (≈ 3.39 µM) | 2 µg/mL (≈ 3.39 µM) | 1 µg/mL (≈ 1.7 µM) | 16 µg/mL (≈ 27.1 µM) | NCCN(CCN)CCOc1cccc(-c2cccc(CNCC[C@H]3CN(c4ccc5c(n4)NC(=O)CO5)C(=O)O3)c2)c1 [Example $155, 6-((S)-5-{2-[(3′-{2-[bis-(2-amino-ethyl)-amino]-ethoxy}-biphenyl-3-ylmethyl)-amino]-ethyl}-2-oxo-oxazolidin-3-yl)-4H-pyrido[3,2-b][1,4]oxazin-3-one]
18 | 1 µg/mL (≈ 1.87 µM) | 1 µg/mL (≈ 1.87 µM) | 1 µg/mL (≈ 1.87 µM) | 1 µg/mL (≈ 1.87 µM) | COc1cc(OCCN)cc(-c2ccnc(CNCC[C@H]3CN(c4ccc5c(n4)NC(=O)CO5)C(=O)O3)c2)n1 [Example $162, 6-[(S)-5-(2-{[4-(2-amino-ethoxy)-6-methoxy-[2,4′]bipyridinyl-2′-ylmethyl]-amino}-ethyl)-2-oxo-oxazolidin-3-yl]-4H-pyrido[3,2-b][1,4]oxazin-3-one]
19 | 4 µg/mL (≈ 7.9 µM) | 2 µg/mL (≈ 3.95 µM) | 8 µg/mL (≈ 15.8 µM) | 4 µg/mL (≈ 7.9 µM) | NCCOc1cccc(-c2ccnc(CNCC[C@H]3CN(c4ccc5c(n4)NC(=O)CO5)C(=O)O3)n2)n1 [Example $165, 6-{(S)-5-[2-({4-[6-(2-amino-ethoxy)-pyridin-2-yl]-pyrimidin-2-ylmethyl}-amino)-ethyl]-2-oxo-oxazolidin-3-yl}-4H-pyrido[3,2-b][1,4]oxazin-3-one]
20 | 1 µg/mL (≈ 1.93 µM) | 2 µg/mL (≈ 3.86 µM) | 2 µg/mL (≈ 3.86 µM) | 2 µg/mL (≈ 3.86 µM) | CNCCOc1cccc(-c2cccc(CNCC[C@H]3CN(c4ccc5c(n4)NC(=O)CO5)C(=O)O3)c2)c1 [Example 4, 6-[(S)-5-(2-{[3′-(2-methylamino-ethoxy)-biphenyl-3-ylmethyl]-amino}-ethyl)-2-oxo-oxazolidin-3-yl]-4H-pyrido[3,2-b][1,4]oxazin-3-one]
21 | 2 µg/mL (≈ 3.75 µM) | 4 µg/mL (≈ 7.5 µM) | 8 µg/mL (≈ 15 µM) | 4 µg/mL (≈ 7.5 µM) | CN(C)CCOc1cnnc(-c2cccc(CNCC[C@H]3CN(c4ccc5c(n4)NC(=O)CO5)C(=O)O3)c2)c1 [Example 10, 6-[(S)-5-(2-{3-[5-(2-dimethylamino-ethoxy)-pyridazin-3-yl]-benzylamino}-ethyl)-2-oxo-oxazolidin-3-yl]-4H-pyrido[3,2-b][1,4]oxazin-3-one]
